Reference: patent US20220220565A1, “METHODS AND COMPOSITIONS FOR TREATING MELANOMA” (INSERM (INSTITUT NATIONAL DE LA SANTÉ ET DE LA RECHERCHE …, priority 2019, published 2022)
Entries after “also recorded” stand apart in the source; their conditions may differ.

How the values were obtained:
PTX3 = PTX3 expression and secretion (immunoblot of lysates and CM); type: cell-based, human; settings: 1205Lu cells treated with IKK inhibitor
Method: (§1) Immunohistochemistry and immunoblot analysis were performed as described before. IHC analysis was performed on melanoma tissue microarrays (US Biomax, MD, USA) using PTX3 antibody (HPA069320, Sigma-Aldrich; 1:50). For immunoblotting, the following antibodies were used at 1:1,000: SPARC (Bio-Techne), PTX3 (Enzo Life Sciences, Switzerland), HSP90, HSP60, TLR4, Fibronectin, ERK2 (Santa Cruz Biotechnology), MITF (Thermo Fisher Scientific), TWIST1 (Abcam, UK), SNAIL, phospho-IKKα/β (Ser176/180), NF-κB p65, phospho-NF-κB p65 (Ser536), I[…]B[…] (L35A5), I[…]B[…] (Ser32/36), IKKα, IKKβ, MYD88, phospho-AKT (Ser473), phospho-ERK1/2 (Thr202/Tyr204) (Cell Signaling Technology, MA, USA).

[1] = system: EMT factors TWIST1 and SNAIL; assay: EMT factor expression (immunoblot); type: cell-based, human; settings: IKK targeting in melanoma cells
Method: as §1

melanoma cells = assay: Cell migration upon IKK targeting; type: cell-based, human; settings: IKK targeting in melanoma cells
Method: (§2) Serum-stimulated chemotaxis, invasion and transendothelial migration were monitored using modified Boyden chambers (8 μm pores, Sigma) as described before. For invasion assays, the upper side of the filter was coated with 0.5 mg.ml-1 matrigel (Corning, N.Y., USA). Migrated cells were stained with crystal violet and counted (four fields randomly per well). For transendothelial migration, 105 HUVECs were grown in the upper chamber of gelatin-coated

[2] = system: PTX3-expressing 501Mel cells; assay: PTX3-mediated cell migration; type: cell-based, human; settings: data not shown
Method: as §2

501Mel control cells = assay: Cell migration of control cells; type: cell-based, human; settings: IKK inhibition or TWIST1 depletion
Method: as §2

1205Lu cells [3] = assay: Serum-stimulated migration (modified Boyden chamber / Transwell); type: cell-based, human
Method: as §2
(§3) Transwell inserts and treated with human TNFa (10 ng.ml-1) for 16 h. Melanoma cells were allowed to migrate for 6 h or 16 h and migrated cells were visualized and quantified as before. Pictures of five random fields were captured for quantification using NIH ImageJ analysis software. For scratch assays, melanoma cells were grown approximately 80% confluence in 6-well plates. Wounds were generated using a sterile 200 μl pipette tip across each well. Following treatment with rhPTX3 or CM, pictures of four random fields were captured using an imaging station and the number of migrated cells in wounded area was counted with NIH ImageJ analysis software.

A375 cells = assay: as above; type: cell-based, human; settings: siPTX3-transfected cells, rhPTX3 100 ng.ml-1
Method: as §2, §3

1205Lu cells [4] = assay: Matrigel invasion assay; type: cell-based, human; settings: siPTX3-transfected cells, rhPTX3 100 ng.ml-1
Method: as §2, §3

1205Lu cells [5] = assay: Transendothelial migration on monolayers of TNFα-activated HUVECs; type: cell-based, human; settings: rhPTX3 100 ng.ml-1, 6 h
Method: as §2, §3

SKMel28 cells = assay: In vitro scratch assay; type: cell-based, human; settings: rhPTX3 added to wounded monolayers of PTX3-negative cells
Method: as §3

1205Lu-Luc+ cells [6] = assay: In vitro cell migration of shRNA-transduced cells (Boyden chamber); type: cell-based, human; settings: among shPTX3-1 to 5; data not shown
Method: Negative control, PTX3 siRNA duplexes were designed by Thermo Fisher Scientific. MITF (sc-35934), MYD88 (sc-35986) and TWIST1 (sc-38604) siRNAs were from Santa Cruz Biotechnology (TX, USA). IKKα, IKKβ, and TLR4 siRNAs were from Dharmacon (CO, USA). Transfection of siRNA was carried out using Lipofectamine RNAiMAX (Thermo Fisher Scientific), at a final concentration of 25 or 50 nM. Unless stated otherwise, cells were assayed 3 days post transfection. Lentiviral vectors for stable knockdown of PTX3 (NM_002852) in melanoma cells were TRC1.5-pLKO.1-puro vectors containing a s (shPTX3-1 to 5) (Genomic center, University of Minnesota, USA). Lentiviral, packaging (psPAX2) and enveloppe (pMD2.0G) vectors were transfected into HEK293T cells and virus-containing supernatant fractions were harvested after 72 h. The supernatant fractions were filtered and used to infect bioluminescent 1205Lu cells (1205Lu-Luc+) that were described before. Transduced cells were selected with 2 μg/ml puromycin for 3 weeks. The efficiency of PTX3 knockdown was assessed by immunoblotting and analysis of in vitro cell migration using modified Boyden chambers. […]
Serum-stimulated chemotaxis, invasion and transendothelial migration were monitored using modified Boyden chambers (8 μm pores, Sigma) as described before. […] Migrated cells were stained with crystal violet and counted (four fields randomly per well). […]

1205Lu-Luc+ cells [7] = assay: Experimental lung metastasis (long-term lung colonization) by bioluminescent melanoma cells; type: in vivo, nude mice
Method: All mouse experiments were carried out in accordance with the Institutional Animal Care and local ethics committees. For experimental lung metastasis studies, 5-week-old female nude mice (Harlan, IN, USA) were intravenously injected with 1205Lu Luc+cells (1×106) that were transduced with a non targeting shRNA lentivirus (shCTRL) or a PTX3 targeting shRNA lentivirus (shPTX3-5). Images were acquired using a Photon Imager (Biospace Lab, France) on mice injected i.p with 50mg.kg-1 D-luciferin (PerkinElmer, MA, USA). Lung metastasis was monitored and quantified using BLI [12]. In a second set of experiments, short-term lung colonization assays were performed with Cell Tracker Orange-stained 501Mel cells stably expressing PTX3 or not. Cells were intravenously injected in 5-week-old female nude mice that were sacrificed either 30 min or 24 h later. Lungs were perfused with PBS, fixed in 4% paraformaldehyde, OCT-embedded, cryosectioned, immunostained and imaged using a confocal microscope as described.

Cc1ccc2nc(NCCN)c3ncc(C)n3c2c1 [BMS345541]
autocrine production of PTX3 (PTX3): impaired the autocrine production of PTX3
EMT factors levels [1]: reduced EMT factors levels
cell migration (melanoma cells): reduced
PTX3-mediated cell migration [2]: reduction of PTX3-mediated cell migration
migration of control cells (501Mel control cells): also reduced

recombinant PTX3: recombinant human PTX3 (Bio-Techne)
rescue of migration by recombinant PTX3 in cells treated with a MYD88 inhibitory peptide (1205Lu cells [3]; data not shown): failed to rescue migration
rescue of migration of PTX3-depleted cells (1205Lu cells [3]; siPTX3-transfected cells, rhPTX3 100 ng.ml-1): rescued the migratory ability; also recorded: restored the migration
rescue of migration of TLR4 silenced cells (1205Lu cells [3]; siTLR4-transfected cells stimulated with rhPTX3 for 4 h): ineffective to restore the migration
rescue of migration of PTX3-depleted cells (A375 cells): rescued the migratory ability
rescue of invasiveness of PTX3-depleted cells (1205Lu cells [4]): restored the impaired invasiveness
rescue of transendothelial migration of PTX3-depleted cells (1205Lu cells [5]): rescued
migration in wound area (SKMel28 cells): enhanced the migration

shPTX3-5: lentiviral shRNA for stable knockdown of PTX3 (TRC1.5-pLKO.1-puro vector), SEQ ID NO: 1 (DNA CCGGGAGGAGCTCAGTATGTTTCATCTCGAGATGAAACATACTGAGCTCCTCTTTTTTG)
reduction of cell migration compared to shCtrl (1205Lu-Luc+ cells [6]): most efficient in reducing cell migration
arrest of injected cells into the lungs (BLI) (1205Lu-Luc+ cells [7]; 15 min after tail vein injection, vs shCTRL): equally arrested into the lungs
lung colonization (BLI) (1205Lu-Luc+ cells [7]; during 15 days after tail vein injection, vs shCTRL): dramatic reduction in lung colonization
reduction in experimental lung metastasis (ex vivo BLI) (1205Lu-Luc+ cells [7]; endpoint of the assay, stable PTX3 knockdown vs control cells): 6 fold
